Source: ChEMBL document CHEMBL1201862, “PubChem BioAssay data set” (2004)
The source made the active and inactive calls.

Legend:
[1] = target: Cytochrome P450 2C9 (Homo sapiens, UniProt P11712)
[2] = target: Cytochrome P450 2C19 (Homo sapiens, UniProt P33261); test: Cytochrome panel assay with activity outcomes. Panel member name: p450-cyp2c19 Compounds with AC50 equal or less than 10 uM are considered active; assay type: functional
[3] = target: T1, Heat shock factor protein 1 (Mus musculus, UniProt P38532); test: decrease of HSF1-responsive luciferase luminescence – cell-based, NIH3T3, dose retest, confirmation (AID 2382); assay type: functional;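 note: NIH3T3 fibroblasts with HSF1-driven luciferase reporter stressed by proteasome inhibitor MG132; luminescence from HSF1-driven luciferase expression after 8 hours of MG132 stress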
T1 sequence (P38532 whole entry): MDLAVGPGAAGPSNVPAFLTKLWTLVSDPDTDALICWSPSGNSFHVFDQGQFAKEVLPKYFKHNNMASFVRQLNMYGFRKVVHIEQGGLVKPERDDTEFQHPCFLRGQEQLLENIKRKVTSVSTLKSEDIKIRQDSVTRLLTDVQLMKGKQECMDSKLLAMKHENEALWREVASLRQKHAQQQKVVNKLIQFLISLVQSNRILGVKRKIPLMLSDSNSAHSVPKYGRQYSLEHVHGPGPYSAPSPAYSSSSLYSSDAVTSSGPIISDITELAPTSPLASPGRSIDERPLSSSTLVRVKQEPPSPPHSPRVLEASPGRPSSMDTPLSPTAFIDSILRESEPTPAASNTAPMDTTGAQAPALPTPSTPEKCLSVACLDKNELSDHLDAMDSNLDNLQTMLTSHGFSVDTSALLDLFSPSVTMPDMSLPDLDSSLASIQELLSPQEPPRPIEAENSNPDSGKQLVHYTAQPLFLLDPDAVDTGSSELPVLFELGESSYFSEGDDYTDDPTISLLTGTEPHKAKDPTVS

[4] = target: Cytochrome P450 3A4 (Homo sapiens, UniProt P08684);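 note: CYP3A4 tested as one member of a cytochrome P450 panel screen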
Cytochrome P450 3A4, sequence (P08684 whole entry): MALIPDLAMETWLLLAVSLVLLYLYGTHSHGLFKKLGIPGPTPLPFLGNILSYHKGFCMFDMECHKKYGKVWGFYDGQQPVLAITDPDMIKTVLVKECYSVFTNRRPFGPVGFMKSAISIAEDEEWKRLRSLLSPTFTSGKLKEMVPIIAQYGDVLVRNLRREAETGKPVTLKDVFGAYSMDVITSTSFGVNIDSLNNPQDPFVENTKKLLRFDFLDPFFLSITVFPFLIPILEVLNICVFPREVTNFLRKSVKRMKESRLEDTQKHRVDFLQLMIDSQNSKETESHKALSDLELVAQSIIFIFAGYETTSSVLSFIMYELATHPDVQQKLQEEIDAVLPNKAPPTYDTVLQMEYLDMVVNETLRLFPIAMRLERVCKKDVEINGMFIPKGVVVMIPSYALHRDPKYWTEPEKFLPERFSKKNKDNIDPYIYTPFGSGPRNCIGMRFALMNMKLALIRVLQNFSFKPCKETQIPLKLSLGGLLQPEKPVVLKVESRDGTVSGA

[5] = target: T2, Cytochrome P450 1A2 (Homo sapiens, UniProt P05177);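 note: PubChem cytochrome P450 panel assay, CYP1A2 panel member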
T2 sequence (P05177 whole entry): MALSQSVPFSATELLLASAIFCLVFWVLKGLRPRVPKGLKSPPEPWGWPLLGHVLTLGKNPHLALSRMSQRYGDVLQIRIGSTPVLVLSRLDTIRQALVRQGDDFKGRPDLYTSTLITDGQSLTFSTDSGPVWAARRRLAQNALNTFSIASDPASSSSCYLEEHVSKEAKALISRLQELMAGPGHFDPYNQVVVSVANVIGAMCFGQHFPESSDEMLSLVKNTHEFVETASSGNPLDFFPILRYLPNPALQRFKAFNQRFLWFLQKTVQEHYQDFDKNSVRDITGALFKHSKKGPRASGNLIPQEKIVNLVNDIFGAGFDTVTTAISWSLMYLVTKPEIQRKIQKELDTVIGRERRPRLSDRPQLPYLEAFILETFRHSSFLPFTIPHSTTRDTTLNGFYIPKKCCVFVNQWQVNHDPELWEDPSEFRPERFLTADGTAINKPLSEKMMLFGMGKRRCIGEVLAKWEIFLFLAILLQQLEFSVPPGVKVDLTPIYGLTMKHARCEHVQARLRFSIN

[6] = target: Cytochrome P450 2D6 (Homo sapiens, UniProt P10635);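 note: CYP2D6 member of a cytochrome P450 panel assay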
Cytochrome P450 2D6, sequence (P10635 whole entry): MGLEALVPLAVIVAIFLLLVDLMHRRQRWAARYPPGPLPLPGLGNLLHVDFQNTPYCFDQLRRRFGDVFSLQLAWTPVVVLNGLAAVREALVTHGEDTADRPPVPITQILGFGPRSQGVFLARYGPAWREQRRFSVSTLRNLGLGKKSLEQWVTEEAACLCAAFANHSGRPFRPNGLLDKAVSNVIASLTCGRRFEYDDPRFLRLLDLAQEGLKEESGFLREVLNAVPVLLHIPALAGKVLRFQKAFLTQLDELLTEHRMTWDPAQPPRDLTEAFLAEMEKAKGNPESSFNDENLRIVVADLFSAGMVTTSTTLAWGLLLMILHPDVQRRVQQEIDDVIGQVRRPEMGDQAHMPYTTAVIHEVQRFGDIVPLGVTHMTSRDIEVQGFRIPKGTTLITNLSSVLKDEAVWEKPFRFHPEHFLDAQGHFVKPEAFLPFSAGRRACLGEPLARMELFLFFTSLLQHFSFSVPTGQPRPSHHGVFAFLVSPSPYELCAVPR

[7] = test system: Streptococcus sp. 'group A'; test: Streptococcus pyogenes SK(-)GAS viability under kanamycin – luminescence, BacTiterGlo, confirmation, counter-screen for streptokinase expression inhibitor project, dose response (AID 1900); assay type: functional, organism-based
[8] = target: T3, Streptokinase A (Streptococcus pyogenes serotype M1, UniProt P10520); test: viability-normalized secreted streptokinase activity reduction – plasminogen activation absorbance, OD405, dose response (AID 1914); assay type: functional, Streptococcus pyogenes M1 GAS;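 note: secreted streptokinase activity via plasminogen activation per viability signal from cell pellet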
T3 sequence (P10520 whole entry): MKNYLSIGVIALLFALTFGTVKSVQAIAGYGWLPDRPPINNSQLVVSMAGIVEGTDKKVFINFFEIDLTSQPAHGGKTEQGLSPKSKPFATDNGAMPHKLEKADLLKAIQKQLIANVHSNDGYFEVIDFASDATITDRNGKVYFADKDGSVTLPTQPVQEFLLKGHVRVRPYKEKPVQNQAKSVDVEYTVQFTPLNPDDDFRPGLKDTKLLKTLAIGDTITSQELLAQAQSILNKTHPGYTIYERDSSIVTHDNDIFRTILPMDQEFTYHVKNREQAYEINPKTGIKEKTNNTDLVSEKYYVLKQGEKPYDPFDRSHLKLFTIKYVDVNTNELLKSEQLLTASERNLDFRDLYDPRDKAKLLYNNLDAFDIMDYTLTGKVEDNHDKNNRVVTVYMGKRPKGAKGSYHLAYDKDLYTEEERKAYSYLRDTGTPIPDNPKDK

[9] = test system: Streptococcus; test: GAS UMAA2166 growth inhibition – luminescence, BacTiterGlo, counter-screen for streptokinase expression inhibitor project, dose response (AID 1915); assay type: functional, organism-based;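 note: potency for reduction of bacterial viability or growth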
[10] = Luminescence Cell-Based Dose Response HTS to Identify Inhibitors of 5'UTR Stem-Loop Driven Prion Protein mRNA Translation in H4 Neuroglioblastoma Cells. [Related pubchem assays: 1827 (Project Summary), 1813 (Primary HTS)]; assay type: functional
[11] = alpha-synuclein stem-loop luciferase translation blockers – H4 neuroglioma cells, luminescence, confirmation (AID 1988); assay type: functional, cell-based

Cytochrome P450 2C9, sequence (P11712 whole entry): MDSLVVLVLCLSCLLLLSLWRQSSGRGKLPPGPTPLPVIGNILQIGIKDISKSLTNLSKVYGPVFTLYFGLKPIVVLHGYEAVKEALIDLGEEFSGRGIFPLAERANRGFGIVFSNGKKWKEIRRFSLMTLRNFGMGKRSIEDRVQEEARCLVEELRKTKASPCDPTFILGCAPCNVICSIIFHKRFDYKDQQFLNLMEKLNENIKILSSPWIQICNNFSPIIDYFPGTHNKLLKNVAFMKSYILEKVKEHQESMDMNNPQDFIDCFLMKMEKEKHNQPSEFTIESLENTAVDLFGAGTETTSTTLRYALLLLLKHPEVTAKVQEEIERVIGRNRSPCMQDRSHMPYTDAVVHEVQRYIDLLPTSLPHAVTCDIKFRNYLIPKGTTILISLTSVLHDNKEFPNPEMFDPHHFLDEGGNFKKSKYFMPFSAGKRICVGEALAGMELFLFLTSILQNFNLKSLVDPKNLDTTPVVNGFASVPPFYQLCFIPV
Cytochrome P450 2C19, sequence (P33261 whole entry): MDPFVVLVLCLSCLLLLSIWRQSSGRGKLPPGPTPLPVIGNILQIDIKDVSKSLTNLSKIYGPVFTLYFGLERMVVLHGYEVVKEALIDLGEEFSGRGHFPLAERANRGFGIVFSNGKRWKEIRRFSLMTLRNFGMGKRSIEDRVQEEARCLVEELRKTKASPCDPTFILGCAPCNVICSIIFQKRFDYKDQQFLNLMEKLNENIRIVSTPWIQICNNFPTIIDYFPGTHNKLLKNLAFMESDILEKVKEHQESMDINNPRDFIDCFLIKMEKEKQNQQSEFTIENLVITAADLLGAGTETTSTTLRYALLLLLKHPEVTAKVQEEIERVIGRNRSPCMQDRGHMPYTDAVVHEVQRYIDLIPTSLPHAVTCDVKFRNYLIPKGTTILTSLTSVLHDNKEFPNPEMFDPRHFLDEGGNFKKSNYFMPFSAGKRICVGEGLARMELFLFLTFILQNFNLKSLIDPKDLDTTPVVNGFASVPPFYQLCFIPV

For `Cc1nc(SCC(=O)Nc2ccc(N3CCOCC3)cc2)nc(C)c1C`, the AC50 [1] was 12.6 µM (inconclusive).

With `N=c1ccn2c(n1)O[C@H]1[C@@H](OP(=O)(O)O)[C@H](CO)O[C@H]12` the AC50 [2] was “inconclusive”.

For `CN(C)CCOC(=O)C1(c2ccccc2)CCOCC1`, the AC50 ([2]; read-out: AC50) was 20 µM (inconclusive).

With `O=C(O)[C@H]1CCCC[C@@H]1c1c2ccc(=O)c(O)c-2oc2c(O)c(O)ccc12` the AC50 ([2]; read-out: AC50) was 2.51 µM (inconclusive) and the AC50 [1] was 6.31 µM (inconclusive).

With `Cc1cccc(-c2ocnc2C(=O)N2CCN(C(=O)c3cccs3)CC2)c1` the EC50 [3] was > 195 µM (not active).

In the case of `c1ccc2c(c1)CCCc1cc(NCCN3CCOCC3)nnc1-2`, the AC50 [4] is reported as 6.31 µM (inconclusive).

For `CCCCCCCCN[C@@H](C)[C@H](O)c1ccc(SC(C)C)cc1` [SULOCTIDIL], the AC50 ([2]; read-out: AC50) was 10 µM (inconclusive) and the AC50 [1] was 0.00501 µM (inconclusive).

For `Cc1noc(NS(=O)(=O)c2ccc(NC(=O)CC34CC5CC(CC(Br)(C5)C3)C4)cc2)c1C`, the AC50 [2] was “inconclusive” and the AC50 [1] was 22.4 µM (inconclusive).

With `Cn1c(=O)c2c(nc(Sc3ncnn3CC(=O)N3CCOCC3)n2C)n(C)c1=O` the EC50 [3] was > 195 µM (not active).

With `COc1ccc(/C=N/NC(=O)Nc2cccc3nsnc23)cc1OC` the EC50 [3] was 9.51 µM (active).

For `Cc1ccc(F)cc1NC(=O)CCNC(=O)c1ccc([N+](=O)[O-])cc1`, the EC50 [3] was > 195 µM (not active).

For `NS(=O)(=O)c1ccc(/N=N\c2cccnc2O)cc1`, the AC50 ([2]; read-out: AC50) was 3.98 µM (inconclusive), the AC50 [5] was 0.501 µM (inconclusive) and the AC50 [1] was 3.16 µM (inconclusive).

In the case of `CN(C)c1ncc2nc(-c3cccs3)c(=O)n(C)c2n1`, the AC50 [4] is reported as 31.6 µM (inconclusive).

With `O=S(=O)(NCCNC/C=C\c1ccc(Br)cc1)c1cccc2cnccc12` the AC50 ([2]; read-out: AC50) was 15.8 µM (inconclusive) and the AC50 [6] was 25.1 µM (inconclusive).

With `CCCOc1ccc2cc(C(=O)NCc3ccccc3)c(=O)oc2c1` the EC50 [3] was 42 µM (active).

For `COc1cccc(C(=O)Nc2ccc(NC(=O)c3ccco3)cn2)c1`, the AC50 [6] was 20 µM (inconclusive) and the AC50 [5] was 25.1 µM (inconclusive).

For `CC(=O)c1cccc(NC(=O)CN2C(S)=NC(C)(C)CC2C)c1` (centres undefined), the EC50 [3] was > 195 µM (not active).

In the case of `O=C(CCCC(=O)N(c1ccc2c(c1)OCCO2)C(C(=O)NC1CCCCC1)c1ccc(Cl)cc1)Nc1ccccn1` (centres undefined), the EC50 [3] is reported as > 195 µM (not active).

For `Cn1cc(-c2nc3cnc(N4CCNCC4)nc3n(C3CC3)c2=O)c2ccccc21`, the AC50 [4] was 7.94 µM (inconclusive).

For `CCOC(=O)c1nnc(O)c2ccccc12`, the EC50 [3] was > 195 µM (not active).

For `Cc1cccc(NC(S)=NNC(=O)CC(C)O)c1C` (centres undefined), the AC50 [1] was 0.00708 µM (inconclusive).

For `c1cc(CNCCN2CCNCC2)ccn1`, the AC50 [6] was 3.98 µM (inconclusive) and the AC50 [4] was 5.01 µM (inconclusive).

With `O=C(O)c1csc(-c2ccccc2)n1` the EC50 [3] was > 195 µM (not active).

In the case of `COc1ccc(Nc2nc(Nc3ccc(OC)cc3)nc(-n3[nH]c(=O)c(C)c3C)n2)cc1`, the EC50 [3] is reported as 22.3 µM (active).

With `C#CCCCO/N=C1/C[C@@H](O)[C@@H](O)[C@@H]2[C@@H]3C(=O)N(Cc4ccccc4)C(=O)[C@H]3CC[C@@H]12` the AC50 [2] was “inconclusive”.

In the case of `COC(=O)[C@@]1(Cc2ccc(F)cc2)[C@H]2c3cc(C(=O)N(C)C)n(Cc4c(CO)ncc(C)c4O)c3C[C@H]2CN1C(=O)c1ccccc1`, the AC50 ([2]; read-out: AC50) is reported as 25.1 µM (inconclusive) and the AC50 [5] is reported as 25.1 µM (inconclusive).

With `Cc1cccc(CNc2ncnc3ccc(-c4cccc(C#N)c4)cc23)c1` the AC50 [1] was 0.794 µM (inconclusive).

For `Cc1nc2cnc(Oc3ccccc3)nc2n(C2CC2)c1=O`, the AC50 [4] was 25.1 µM (inconclusive) and the AC50 [1] was 12.6 µM (inconclusive).

For `CC(=O)Nc1cccc(-n2c(=O)n(Cc3ccccc3)c(=O)c3[nH]cnc32)c1`, the EC50 [3] was > 195 µM (not active).

For `COc1ccccc1CNc1ncnc2ccc(-c3cccc(C#N)c3)cc12`, the AC50 [6] was 2.51 µM (inconclusive).

With `COc1ccc(-n2nc3ccccc3n2)cc1` the EC50 [3] was > 195 µM (not active).

With `CCOc1ccc(N/N=C(/C#N)C(N)=O)cc1` the AC50 [4] was 20 µM (inconclusive) and the AC50 [1] was 15.8 µM (inconclusive).

With `Cc1cc(C)cc(NC(=O)CC(=N)NO)c1` the AC50 [4] was 28.2 µM (inconclusive).

In the case of `O=c1cnc2cnc(Oc3ccccc3)nc2n1Cc1cccs1`, the AC50 [6] is reported as 39.8 µM (inconclusive) and the AC50 [4] is reported as 15.8 µM (inconclusive).

For `CCCn1c(N)c(C(=O)CSc2nc3ccccc3c(=O)n2Cc2ccccc2)c(=O)[nH]c1=O`, the EC50 [3] was > 195 µM (not active).

With `Cc1cccc(OCCCC(=O)Nc2ccccc2C(F)(F)F)c1` the AC50 [6] was 25.1 µM (inconclusive).

With `c1cncc(-c2cc(-c3cc(-c4cccnc4)[nH]n3)n[nH]2)c1` the AC50 [5] was 0.501 µM (inconclusive) and the AC50 [4] was 5.01 µM (inconclusive).

For `CCOC(=O)C1=C(C)NC(=O)N[C@@H]1c1coc2cc(C)cc(C)c2c1=O`, the AC50 [5] was 2.51 µM (inconclusive) and the AC50 [4] was 3.98 µM (inconclusive).

In the case of `CC(=O)c1ccc(NC(=O)C2CC(c3ccc(F)cc3)=NO2)cc1` (centres undefined), the AC50 ([2]; read-out: AC50) is reported as 17.8 µM (inconclusive), the AC50 [5] is reported as 0.00794 µM (inconclusive) and the AC50 [1] is reported as 1.12 µM (inconclusive).

With `CN(C)c1ccc(-c2ccc3ncnc(N4CCNCC4)c3c2)cc1` the AC50 ([2]; read-out: AC50) was 25.1 µM (inconclusive).

With `O=C(O)c1ccccc1Nc1cccc(C(F)(F)F)c1` [FLUFENAMIC ACID] the AC50 [1] was 10 µM (inconclusive).

In the case of `CC(C)Oc1ccc(N2CC(C(=O)OCC(=O)NCc3ccccc3)CC2=O)cc1` (centres undefined), the AC50 [6] is reported as 22.4 µM (inconclusive) and the AC50 [1] is reported as 28.2 µM (inconclusive).

With `COC(=O)c1cn(NC(=O)CCC2CCCC2)c(=O)c2ccccc12` the EC50 [3] was > 195 µM (not active).

For `Cc1ccc(SCc2ccc(C(=O)NCc3ccncc3)cc2)cc1`, the AC50 [4] was 7.08 µM (inconclusive).

With `COc1ccc2[nH]cc(CCNc3nc(-c4ccoc4)nc4ccccc34)c2c1` the AC50 [1] was 1 µM (inconclusive).

With `Fc1ccc(CSc2ncnc3sc4c(c23)CCCC4)cc1` the EC50 [7] was 22.8 µM (active), the EC50 [8] was 13.3 µM (active) and the EC50 [9] was > 150 µM (not active). For the same compound, the AC50 [4] was 35.5 µM (inconclusive).

With `CS(=O)(=O)N1CCC2(CC1)CN(Cc1ccncc1)C2` the AC50 [6] was 20 µM (inconclusive) and the AC50 [4] was 31.6 µM (inconclusive).

In the case of `Cc1cc(NC(=O)Nc2ccc(F)cc2)no1`, the AC50 [1] is reported as 15.8 µM (inconclusive).

With `CCCN1C(=O)C(Cc2nc3ccccc3c(=O)n2C)c2ccccc21` (centres undefined) the AC50 ([2]; read-out: AC50) was 0.0562 µM (inconclusive), the AC50 [6] was 17.8 µM (inconclusive) and the AC50 [5] was 25.1 µM (inconclusive).

In the case of `COc1ccc(Br)cc1/C=C/c1ccc2cccc(O)c2n1`, the EC50 [7] is reported as 0.246 µM (active), the EC50 [10] is reported as 13.4 µM (active) and the EC50 [11] is reported as > 120 µM (not active). For the same compound, the EC50 [8] was > 150 µM (not active) and the EC50 [9] was 6.48 µM (active).

In the case of `O=C(c1cccc(F)c1)N1CCC2(CCCN(c3ccncc3)C2)CC1`, the AC50 [6] is reported as 15.8 µM (inconclusive) and the AC50 [5] is reported as 31.6 µM (inconclusive).
